Values of other authors, collected in patent US12403100B2, “Natural combination products and methods for regulation of total blood cholesterol” (priority 2018, dated 2025).
Blank lines part the entries; values can stand above or below the compound they belong to.

Key:
[1] = in vivo
[2] = target: CYP 2C9 (Homo sapiens, UniProt P11712)
[3] = in vivo; remark: listed apart in the source
[4] = test system: CYP450
[5] = not given; remark: listed apart in the source
[6] = test system: plasma proteins
[7] = not given; remark: listed apart in the source
[8] = aqueous-acidic medium
[9] = test system: hyperlipidemic patients with hypertension; settings: intake of 20 mg of lovastatin, same time (8 weeks)
[10] = Reynoso et al. 2002
[11] = target: CYP 3A4 (Homo sapiens, UniProt P08684)
Chain of CYP 3A4 (P08684 whole entry): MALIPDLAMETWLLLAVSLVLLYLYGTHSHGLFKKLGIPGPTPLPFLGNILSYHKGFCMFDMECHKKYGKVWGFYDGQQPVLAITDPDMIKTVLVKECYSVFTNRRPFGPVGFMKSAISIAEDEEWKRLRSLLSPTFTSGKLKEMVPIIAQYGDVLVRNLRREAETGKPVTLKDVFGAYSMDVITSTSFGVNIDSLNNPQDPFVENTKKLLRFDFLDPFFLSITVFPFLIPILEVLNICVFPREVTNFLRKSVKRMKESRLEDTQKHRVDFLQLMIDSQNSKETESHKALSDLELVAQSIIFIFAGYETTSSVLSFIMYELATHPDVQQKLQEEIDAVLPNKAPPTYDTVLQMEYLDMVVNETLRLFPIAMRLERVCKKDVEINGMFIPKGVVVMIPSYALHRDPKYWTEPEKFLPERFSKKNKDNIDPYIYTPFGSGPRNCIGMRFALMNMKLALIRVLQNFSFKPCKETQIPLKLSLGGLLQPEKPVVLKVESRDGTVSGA

[12] = target: T1, pancreatic cholesterol esterase (Sus scrofa, UniProt A0A286ZKB1); settings: depending on their concentration
T1 sequence (A0A286ZKB1 1-682): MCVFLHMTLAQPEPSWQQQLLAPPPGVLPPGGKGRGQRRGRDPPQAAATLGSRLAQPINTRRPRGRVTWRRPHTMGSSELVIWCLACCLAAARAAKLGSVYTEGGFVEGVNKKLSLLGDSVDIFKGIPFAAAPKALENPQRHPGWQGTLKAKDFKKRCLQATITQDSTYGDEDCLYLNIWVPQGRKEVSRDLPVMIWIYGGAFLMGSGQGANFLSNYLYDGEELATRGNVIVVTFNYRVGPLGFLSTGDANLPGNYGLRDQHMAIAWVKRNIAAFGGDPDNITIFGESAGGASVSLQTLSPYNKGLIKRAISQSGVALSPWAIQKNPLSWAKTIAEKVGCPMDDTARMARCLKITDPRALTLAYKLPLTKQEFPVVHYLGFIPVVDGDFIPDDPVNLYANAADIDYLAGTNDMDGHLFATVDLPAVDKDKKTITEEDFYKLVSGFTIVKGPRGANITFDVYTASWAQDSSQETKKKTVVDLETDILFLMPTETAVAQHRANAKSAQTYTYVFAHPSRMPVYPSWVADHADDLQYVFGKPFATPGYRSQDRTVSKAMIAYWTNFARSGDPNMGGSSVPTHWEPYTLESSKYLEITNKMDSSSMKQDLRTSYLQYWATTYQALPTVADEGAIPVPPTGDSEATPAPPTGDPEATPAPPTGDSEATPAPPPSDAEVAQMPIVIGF

[13] = test system: lipoprotein mycelia; settings: concentration of 0.2 mg/mL

Chain of CYP 2C9 (P11712 whole entry): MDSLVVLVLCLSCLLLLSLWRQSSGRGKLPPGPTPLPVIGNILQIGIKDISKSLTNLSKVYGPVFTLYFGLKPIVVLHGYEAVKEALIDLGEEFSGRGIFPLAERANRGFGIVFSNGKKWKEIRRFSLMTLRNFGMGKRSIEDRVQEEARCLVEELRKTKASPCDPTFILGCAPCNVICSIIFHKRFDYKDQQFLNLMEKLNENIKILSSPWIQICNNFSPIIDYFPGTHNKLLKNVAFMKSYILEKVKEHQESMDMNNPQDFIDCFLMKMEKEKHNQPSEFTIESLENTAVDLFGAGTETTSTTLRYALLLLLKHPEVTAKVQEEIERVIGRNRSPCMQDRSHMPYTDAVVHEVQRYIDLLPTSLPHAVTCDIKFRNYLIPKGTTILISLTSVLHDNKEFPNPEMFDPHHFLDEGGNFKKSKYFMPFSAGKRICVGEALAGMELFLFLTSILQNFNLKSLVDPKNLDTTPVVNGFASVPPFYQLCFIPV

- Plasma half-life [1]: 1.2 h
- metabolized by CYP 2C9 [2]: metabolized
- Passing through the blood-brain barrier [3]: No
- Metabolism by CYP450 [4]: Yes
- lipophilic or hydrophilic: lipophilic
Compound: CC(C)n1c(/C=C/C(O)CC(O)CC(=O)O)c(-c2ccc(F)cc2)c2ccccc21 (centres unmarked) [Fluvastatin]

Compound: CC[C@H](C)C(=O)O[C@H]1C[C@@H](C)C=C2C=C[C@H](C)[C@H](CC[C@@H]3C[C@@H](O)CC(=O)O3)[C@H]21 [Lovastatin]
- remaining share of the maximal concentration ([5]; after about 24 hours): 10%
- absorbed in the gastrointestinal tract ([5]; from the taken dose): about 30%
- passage through the placental barrier ([5]; in vivo): passes through the placental barrier
- share converted to beta hydroxyl acid ([5]; in vivo): about 30%
- time to maximal hypolipidemic effect ([5]; in vivo): 4-6 weeks
- time to overt hypolipidemic effect ([5]; in vivo): 2 weeks
- time until maximal concentration is reached ([5]; in vivo): about 2 hours
- eliminated in excrement ([5]; taken orally): 83%
- eliminated in the urine ([5]; taken orally): 10%
- Absorption (%) [1]: 31%
- Plasma half-life [1]: 2 to 4 h
- Renal excretion (%) [1]: 30%
- Binding to Plasma proteins (%) [6]: 95%
- bound to plasma proteins ([6]; lovastatin and its metabolites): > 95%
- solubility in fat [7]: dissolves more easily in fat
- solubility in water [7]: difficult to dissolve in water
- energy released by the reverse process (hydrolysis) [8]: 2.42 kcal/mol
- reduction in cholesterol [9]: 19%
- lipophilic or hydrophilic: lipophilic
- absorbed from the digestive tract [10]: ~30%

- solubility in fat [7]: with more difficultly in fat
- solubility in water [7]: dissolves easily in water
- energy required for lactonization of mevinolinic acid in lovastatin [8]: 4.93 kcal/mol
Compound: CC[C@H](C)C(=O)O[C@H]1C[C@@H](C)C=C2C=C[C@H](C)[C@H](CC[C@@H](O)C[C@@H](O)CC(=O)O)[C@H]21 [Mevinolinic acid]

- metabolized by CYP 3A4 [11]: not metabolized
- Absorption (%) [1]: 35%
- Plasma half-life [1]: 0.9 to 1.6 h
- Renal excretion (%) [1]: 60%
- Binding to Plasma proteins (%) [6]: 40-50%
- Passing through the blood-brain barrier [3]: No
- Metabolism by CYP450 [4]: No
- lipophilic or hydrophilic: hydrophilic
Compound: CC[C@H](C)C(=O)O[C@H]1C[C@H](O)C=C2C=C[C@H](C)[C@H](CC[C@@H](O)C[C@@H](O)CC(=O)O)[C@H]21 [Pravastatin]

- Plasma half-life [1]: 1.3 to 2.4 h
Compound: CCC(C)(C)C(=O)O[C@H]1C[C@@H](C)C=C2C=C[C@H](C)[C@H](CC[C@@H]3C[C@@H](O)CC(=O)O3)[C@H]21 [Simvastatin]

Compound: O=C(O)c1cc(O)c(O)c(O)c1 [gallic acid]
- inhibition of pancreatic cholesterol ester [12]: significantly inhibit
- reduction of the formation of lipoprotein mycelia [13]: 27.26±2.17%

- metabolized by CYP 3A4 [11]: not metabolized
- metabolized by CYP 2C9 [2]: metabolized
- lipophilic or hydrophilic: hydrophilic
Compound: CC(C)c1nc(N(C)S(C)(=O)=O)nc(-c2ccc(F)cc2)c1/C=C/[C@@H](O)C[C@@H](O)CC(=O)O [rosuvastatin]

Compound: catechin
- inhibition of pancreatic cholesterol ester [12]: significantly inhibit
- reduction of the formation of lipoprotein mycelia [13]: 11.88±0.75%
